Reference: the NIST ThermoML archive (doi:10.1016/j.tca.2019.178308)
Numbers after ± are expanded uncertainties.

What was measured:
[1] = wn = mass fraction of the nth substance listed; conditions: 304.15 K, 100 kPa, Liquid, transient hot wire
[2] = 304.15 K; 100 kPa; Liquid; transient hot wire

Compound: CCCCCCCCCCCCOS(=O)(=O)[O-].[Na+] [sodium dodecyl sulfate] + O
- thermal conductivity ([1]; w1 = 0.001): 0.589 ± 0.024 W/m/K
- thermal conductivity ([1]; w1 = 0.003): 0.538 ± 0.022 W/m/K
- thermal conductivity ([1]; w1 = 0.005): 0.537 ± 0.022 W/m/K
- thermal conductivity ([1]; w1 = 0.007): 0.499 ± 0.02 W/m/K

Compound: O [water]
- thermal conductivity [2]: 0.613 ± 0.025 W/m/K

Compound: O [water] + CCCCCCCCCCCCOS(=O)(=O)[O-].[Na+]
- thermal conductivity ([1]; w2 = 0): 0.613 ± 0.025 W/m/K
